Measured values taken from ChEMBL document CHEMBL5331085 (Eur J Med Chem, 2023).
Activity calls are given as the source filed them. The calls are words filed in the database; no cut-off is given here.

Tests used:
[1] = Hemolytic activity in sheep erythrocytes incubated for 1 hr by absorbance based analysis; format: toxicity, cell-based, Ovis aries, Erythrocyte; details: sheep erythrocytes
Staphylococcus aureus [2] = experiment: Antimicrobial activity against methicillin-resistant Staphylococcus aureus incubated for 16 to 20 hrs by broth microdilution method; format: functional; details: time 16-20 hrs
[3] = Cytotoxicity against HUVEC cells assessed as inhibition of cell growth incubated for 72 hrs by CCK-8 assay; format: toxicity, cell-based; details: human
Staphylococcus aureus [4] = experiment: Induction of ROS accumulation in Staphylococcus aureus ATCC 29213 at 0.5 ug/ml incubated for 30 mins by DCF-DA staining based fluorescence analysis; format: functional, organism-based; details: dose 0.5 µg/ml
Cell membrane [5] = experiment: Induction of membrane disruption in Staphylococcus aureus ATCC 29213 assessed as nucleic acid leakage at 16 ug/ml incubated for 2 hrs by ultra-fine fluorescence spectrophotometry analysis; details: dose 16.0 µg/ml
Cell membrane [6] = experiment: Induction of membrane damage in Staphylococcus aureus ATCC 29213 assessed as shrunken bacterial cell surface at 8 ug/ml incubated for 6 hrs by scanning electron microscopic analysis; format: subcellular; details: dose 8.0 µg/ml
Cell membrane [7] = experiment: Induction of membrane depolarization in Staphylococcus aureus ATCC 29213 assessed as increase in fluorescence intensity treated for 6 mins prior to compound addition and further measured for 20 mins by DiSC3-5 dye based fluorescence analysis; format: subcellular; details: dose 16-64 µg/ml
Staphylococcus aureus [8] = experiment: Antimicrobial activity against methicillin-resistant Staphylococcus aureus infected in Kunming female mouse assessed as reduction in bacterial load in skin at 10 mg/kg/day administered at labeled position and measured after 24 hrs relative to control; format: functional; parameters: scale not given: the % may be the effect or the level left
Staphylococcus aureus [9] = experiment: Antimicrobial activity against methicillin-resistant Staphylococcus aureus incubated for 16 to 20 hrs by CLSI based broth dilution method; format: functional; details: time 16-20 hrs
Staphylococcus aureus [10] = experiment: Bactericidal activity against Staphylococcus aureus ATCC 29213 assessed as remaining bacterial concentration at 8 ug/ml measured after 8 hrs; format: functional; details: dose 8 µg/ml
Staphylococcus aureus [11] = experiment: Antimicrobial activity against methicillin-resistant Staphylococcus aureus infected in Kunming female mouse assessed as reduction in skin inflammation at 5 to 10 mg/kg/day administered at labeled position and measured after 24 hrs by H and E staining based analysis; format: functional, organism-based; details: dose 5-10 mg/kg/day
Staphylococcus aureus [12] = experiment: Antimicrobial activity against methicillin-resistant Staphylococcus aureus infected in Kunming female mouse assessed as reduction in neutrophil levels in skin at 5 to 10 mg/kg/day administered at labeled position and measured after 24 hrs by H and E staining based analysis; format: functional, organism-based; details: dose 5-10 mg/kg/day
Staphylococcus aureus [13] = experiment: Induction of ROS accumulation in Staphylococcus aureus ATCC 29213 at 1 ug/ml incubated for 30 mins by DCF-DA staining based fluorescence analysis; format: functional, organism-based; details: dose 1.0 µg/ml
Staphylococcus aureus [14] = experiment: Induction of ROS accumulation in Staphylococcus aureus ATCC 29213 at 1 ug/ml incubated for 30 mins in presence of N-acetyl-L-cysteine by DCF-DA staining based fluorescence analysis; format: functional, organism-based; details: dose 1.0 µg/ml
Cell membrane [15] = experiment: Induction of membrane damage in Staphylococcus aureus ATCC 29213 assessed as membrane collapse with flowing contents at 8 ug/ml incubated for 6 hrs by scanning electron microscopic analysis; format: subcellular; details: dose 8.0 µg/ml
Staphylococcus aureus [16] = experiment: Bactericidal activity against Staphylococcus aureus ATCC 29213 assessed as reduction in bacterial growth at 8 ug/ml measured upto 24 hrs; format: functional, organism-based; details: dose 8.0 µg/ml
[17] = Cytotoxicity against human WPMY-1 cells assessed as inhibition of cell growth incubated for 72 hrs by CCK-8 assay; format: toxicity, cell-based
Staphylococcus aureus [18] = experiment: Antimicrobial activity against methicillin-resistant Staphylococcus aureus infected in Kunming female mouse assessed as reduction in bacterial load in skin at 5 mg/kg/day administered at labeled position and measured after 24 hrs relative to control; format: functional; parameters: scale not given: the % may be the effect or the level left
[19] = Induction of drug resistance in Staphylococcus aureus ATCC 29213 assessed as test compound MIC at sub-MIC measured after 20 days (reference value: 1 ug/ml); format: functional; details: ATCC 29213, 480 h, time 20 day
Cell membrane [20] = experiment: Induction of membrane damage in Staphylococcus aureus ATCC 29213 assessed as sticky appearance of bacterial cells at 8 ug/ml incubated for 6 hrs by scanning electron microscopic analysis; format: subcellular; details: dose 8.0 µg/ml
Staphylococcus aureus [21] = experiment: Antibacterial activity against Staphylococcus aureus ATCC 29213 assessed as inhibition of bacterial growth at 1 ug/ml incubated for 16 to 18 hrs in presence of genomic DNA at 0.125 to 4 ug/ml by microplate reader analysis; format: functional, organism-based; details: dose 1.0 µg/ml, time 16-18 hrs
Enterococcus faecium = experiment: Antimicrobial activity against Enterococcus faecium ATCC 29212 incubated for 16 to 20 hrs by CLSI based broth dilution method; format: functional; details: Enterococcus faecium, ATCC 29212, time 16-20 hrs; read-out: MIC
Staphylococcus aureus [22] = experiment: Bactericidal activity against Staphylococcus aureus ATCC 29213 incubated for 16 to 20 hrs in presence of 50% plasma by broth dilution method; format: functional, organism-based; details: time 16-20 hrs
Staphylococcus aureus [23] = experiment: Antibacterial activity against Staphylococcus aureus ATCC 29213 assessed as increase in MIC incubated for 18 hrs in presence of cardiolipin incubated for 18 hrs by checkerboard dilution assay; format: functional, organism-based
[24] = test system: Stenotrophomonas maltophilia; experiment: Antimicrobial activity against Stenotrophomonas maltophilia ATCC 17808 incubated for 16 to 20 hrs by CLSI based broth dilution method; format: functional; details: Stenotrophomonas maltophilia, ATCC 17808; time 16-20 hrs; read-out: MIC
Staphylococcus aureus [25] = experiment: Antimicrobial activity against Staphylococcus aureus ATCC 29213 incubated for 16 to 20 hrs by CLSI based broth dilution method; format: functional; details: Staphylococcus aureus, ATCC 29213; time 16-20 hrs; read-out: MIC
[26] = Cytotoxicity against human BGC cells assessed as inhibition of cell growth incubated for 72 hrs by CCK-8 assay; format: toxicity, cell-based
Cell membrane [27] = experiment: Induction of membrane damage in Staphylococcus aureus ATCC 29213 assessed as change in membrane shape at 8 ug/ml incubated for 6 hrs by scanning electron microscopic analysis; details: dose 8.0 µg/ml
Staphylococcus aureus [28] = experiment: Antibacterial activity against Staphylococcus aureus ATCC 29213 assessed as fold increase in MIC incubated for 18 hrs in presence of phosphatidylglycerol incubated for 18 hrs by checkerboard dilution assay relative to control; format: functional
Escherichia coli = experiment: Antimicrobial activity against Escherichia coli ATCC 25922 incubated for 16 to 20 hrs by CLSI based broth dilution method; format: functional; details: Escherichia coli, ATCC 25922; time 16-20 hrs; read-out: MIC
Staphylococcus aureus [29] = experiment: Antibacterial activity against Staphylococcus aureus ATCC 29213 assessed as fold increase in MIC incubated for 18 hrs in presence of phosphatidylethanolamine at 64 ug/ml incubated for 18 hrs by checkerboard dilution assay relative to control; format: functional
Cell membrane [30] = experiment: Induction of membrane disruption in Staphylococcus aureus ATCC 29213 assessed as increase in red fluorescence at 8 ug/ml incubated for 30 mins by DAPI/PI staining based confocal microscopic analysis; format: subcellular; details: dose 8.0 µg/ml

CCCCCCCC[N+](C)(C)CCCCCOc1ccc(OCCCCC[N+](C)(C)CCCCCCCC)cc1.[Br-].[Br-]
HC50 at 1 h [1]: 1210 µg/mL | MIC (Staphylococcus aureus [2]): 0.25 µg/mL

CCCCCC[N+](C)(C)CCCOc1cccc(-c2cccc(OCCC[N+](C)(C)CCCCCC)c2)c1.[Br-].[Br-]
IC50 at 72 h [3]: 24.6 µg/mL | Activity (Staphylococcus aureus [4]): Active | Activity (Cell membrane [5]): Active | Activity (Cell membrane [6]): Active | Activity (Cell membrane [7]): Dose-Dependent Effect | Activity (Staphylococcus aureus [8]): 99.93% | MIC90 (Staphylococcus aureus [9]): 1 µg/mL | Activity (Staphylococcus aureus [10]): <1 10^2CFU/ml | Activity (Staphylococcus aureus [11]): Active | Activity (Staphylococcus aureus [12]): Active | Activity (Staphylococcus aureus [13]): inactive | Activity (Staphylococcus aureus [14]): inactive | Activity (Cell membrane [15]): Active | Activity (Staphylococcus aureus [16]): Active | IC50 at 72 h [17]: 23.3 µg/mL | Activity (Staphylococcus aureus [18]): 99.67% | MIC [19]: 1 µg/mL | Activity (Cell membrane [20]): Active | Activity (Staphylococcus aureus [21]): Active | MIC (Enterococcus faecium): 8 µg/mL | HC50 at 1 h [1]: 905 µg/mL | Activity (Staphylococcus aureus [22]): Active | Activity (Staphylococcus aureus [23]): Active | MIC [24]: 16 µg/mL | MIC (Staphylococcus aureus [25]): 1 µg/mL | IC50 at 72 h [26]: 18.8 µg/mL | Activity (Cell membrane [27]): Active | fold change (FC) (Staphylococcus aureus [28]): 16 | MIC (Escherichia coli): 16 µg/mL | fold change (FC) (Staphylococcus aureus [29]): 2 | Activity (Cell membrane [30]): Active
